System: mouse caspase-2-expressing HeLa cells
Assay: Cell death and caspase-2 processing in HeLa TKO cells expressing mouse caspase-2
Assay type: cell-based
Details: high concentrations of HUHS015
Text: Figure 4. HUHS015 activates human caspase-2 directly through specific targeting of the interdomain linker of caspase-2. (A) The direct binding between HUHS015-36 and MBP-fused human caspase-2 pro-domain was detected by microscale thermophoresis (MST). MST profiles for raw binding signals and affinity (KD) measurement are shown. The calculated dissociation constant (KD) is expressed as means ± s.d. from two determinations. (B) Sequence alignment of the pro-domain (residues 1–169) of human and mouse caspase-2. CARD domain annotation is shown on top of the sequences. Identical residues are in red background and conserved ones are in red. Numbers of starting residues are indicated on the left. Different residues in the interdomain linker (residues 122–169) were highlighted with green color. (C) HUHS015 activates human but not mouse caspase-2. HeLa TKO cells rescued with human or mouse caspase-2 expression were treated with HUHS015 for the indicated time. […] ATP-based cell viability in panels (C–E) is expressed as mean ± s.d. from three technical replicates. […] TEXT PRINTED IN THE PICTURE: (A) HUHS015-36: MBP-CASP2(32–165) vs. HUHS015-36: KD (μmol/L): 22.05 ± 6.151; MBP vs. HUHS015-36: KD (μmol/L): Not detected […]
Cell viability was measured by the ATP assay using the CellTiter-Glo® Luminescent Cell Viability Assay kit (Promega).

Cc1ccc2nc(-n3nc(C)c(Cc4ccccc4)c3O)[nH]c2c1 [HUHS015]
apoptosis / caspase-2 processing: no apoptosis
